In this assay the test system is HEp-2. In words: Tested for cloning suppression test against H.Ep.-2 cells. The class given is functional. Particulars: Homo sapiens, read-out: ED50 (the source's name).

pEC50: −log10 of the molar value.

As for `Nc1cc(N)c2cc(CCc3ccc(C(=O)NC(CCC(=O)O)C(=O)O)cc3)ccc2c1` (configuration not stated), the pEC50 is 9.05.
The result for `CN(Cc1cnc2nc(N)nc(N)c2n1)c1ccc(C(=O)N[C@@H](CCC(=O)O)C(=O)O)cc1` [METHOTREXATE] reads 8.62.

Source of the values: ChEMBL document CHEMBL1121411, “Convenient synthesis of 10-deazaaminopterin via a pteridine ylide” (J Med Chem, 1980).
